Laboratory results reported in patent US20110230476A1, “PI3 KINASE INHIBITORS AND USES THEREOF” (AVILA THERAPEUTICS, INC., priority 2009, published 2011).

Assays:
PI3Kα (p110α/p85α) = target: T1, PI3Kα (p110α/p85α) (Homo sapiens, UniProt P42336); assay: HTRF assay, potency against active PI3Kα; assay type: biochemical; conditions: HTRF; [ATP]=50 μM, [di-C8-PIP2]=10 μM; 30 min pre-incubation; read-out: PI3Kα Inhibition
T1 construct: purchased BPS Bioscience (San Diego, Calif.) or Millipore (Billerica, Mass.)
How it was run: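 Active p110/p85α lipid kinase reactions were started with ATP and run 30-60 minutes at 25 °C, then stopped and developed with HTRF detection mix. HTRF ratio converted to % inhibition against ±enzyme controls; IC50 from log[inhibitor] vs response, variable slope.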

PI3Kγ (p120γ) = target: T2, PI3Kγ (p120γ) (Homo sapiens, UniProt P48736); assay: HTRF assay, potency against active PI3Kγ; assay type: biochemical; conditions: [ATP]=50 μM, [di-C8-PIP2]=10 μM, 30 min pre-incubation, read-out: PI3Kγ Inhibition
T2 construct: purchased BPS Bioscience (San Diego, Calif.) or Millipore (Billerica, Mass.)
From the text: Homogeneous Time Resolved Fluorescence (HTRF) Assay Protocol for Potency Assessment Against the Active Forms of PI3Kα, PI3Kβ, and PI3Kγ
The protocol below describes an end-point, competition-binding HTRF assay used to measure inherent potency of test compounds against active PI3Kα (p110α/p85α), PI3Kβ (p110β/p85α), and PI3Kγ (p120γ) enzymes. The mechanics of the assay platform are best described by the vendor (Millipore, Billerica, Mass.) on their website at the following URL: www.millipore.com/coa/tech1/74jt4z.
Briefly, Stop solution (Stop A, #33-007 and Stop B, #33-009; 3:1 ratio) and Detection Mix (from DMC, #33-015 with DMA, #33-011 and DMB, #33-013; 18:1:1 ratio) were prepared as recommended by the manufacturer about 2 hrs prior to use. Additionally, 1× reaction buffer (from 4× buffer stock# 33-003), 1.4× stocks of PI3Kα, PI3Kβ, and PI3Kγ enzymes from BPS Bioscience (San Diego, Calif.) or Millipore (Billerica, Mass.) with di-C8-PIP2 lipid substrate (#33-005), and a 4×ATP solution (#A7699 Sigma/Aldrich; St. Louis, Mo.) were prepared in 1× reaction buffer. 15 μL of PI3K enzymes and lipid substrate mix were pre-incubated in a Corning (#3573) 384-well, black, non-treated microtiter plate (Corning, N.Y.) for 30 min at 25° C. with a 0.5 μL volume of 50% DMSO and serially diluted compounds prepared in 50% DMSO. Lipid kinase reactions were started with the addition of 5 μL of ATP solution, mixed for 15 sec on a rotary plate shaker and incubated for 30-60 minutes at 25° C. Next, reactions were stopped with a 5 μL addition of Stop solution immediately followed by a 5 μL volume of Detection Mix. Stopped reactions were equilibrated for 1 and 18 hrs at room temperature and read in a Synergy^4 plate reader from BioTek (Winooski, Vt.) at λex330-80/λem620-35 and λem665-7.5. At the conclusion of each assay, the HTRF ratio from fluorescence emission values for each well was calculated and % Inhibition determined from averaged controls wells (+/−PI3K enzyme). % Inhibition values for each compound were then plotted against inhibitor concentration to estimate IC50 from log [Inhibitor] vs Response, Variable Slope model in GraphPad Prism from GraphPad Software (San Diego, Calif.).
[Reagent] used in optimized protocol: • [p110α/p85α]=0.5-1.5 nM, [ATP]=50 μM, [di-C8—PIP2]=10 μM • [p110β/p85α]=0.75 nM, [ATP]=50 μM, [di-C8—PIP2]=10 μM • [p120γ]=2-2.5 nM, [ATP]=50 μM, [di-C8—PIP2]=10 μM • (ATP KMapp for both enzymes was estimated to be 40-70 μM)

Phospho-Akt(Ser473) = assay: Dose response in SKOV3 cells as determined by in-cell Western; assay type: cell-based; conditions: Homo sapiens, SK-OV-3; SKOV3 cells, 1 hr; read-out: pAKT Inhibition in cell Western
Protocol: Dose Response in SKOV3 Cells as Determined by in-Cell Western
Twenty four hours later the media was removed and replaced with 100 ul media containing test compound or control compound and cells were returned to the incubator for 1 hr. At the end of the hour, the media was removed and the cells were washed once with PBS, then fixed for 20 minutes at room temperature in 4% formaldehyde in PBS. The formaldehyde was removed and cells were washed 5 times for 5 minutes with 100 ul of Permeabilization Buffer (PBS+0.1% Triton X-100) at room temperature with gentle shaking. The last wash was removed and replaced with 150 ul of Odyssey Blocking Buffer (Li-Cor, Lincoln, Nebr.) and incubated for 90 minutes at room temperature with gentle shaking.
The Blocking Buffer was then replaced with 50 ul of primary antibody mix (rabbit anti-Phospho-Akt(Ser473) at 1:100 (Cell Signaling Technology, Boston, Mass.) and mouse anti-tubulin at 1:5000 (Sigma Aldrich, St. Louis, Mo.) diluted in Odyssey Blocking Buffer) and incubated overnight at room temperature with gentle shaking.
The next morning, the antibody mix was removed and the wells were washed 5 times for 5 minutes with PBS+0.1% Tween-20. The last wash was replaced with 50 ul of secondary antibody mix (goat anti-rabbit-IRDye-680 and goat anti-mouse-IRDye-800 (Li-Cor), both diluted 1:1000 in Odyssey Blocking Buffer+0.2% Tween-20) and incubated for 1 hour at room temperature with gentle shaking. The antibody mix was removed and the wells were washed 5 times for 5 minutes in PBS+0.1% Tween-20, then 1 time with ddH2O.
The plates were scanned on an Odyssey machine (Li-Cor) with a 3 mm focus offset at an intensity of 8 in both channels and the data was analyzed using the Odyssey software.

T2 sequence (P48736 whole entry): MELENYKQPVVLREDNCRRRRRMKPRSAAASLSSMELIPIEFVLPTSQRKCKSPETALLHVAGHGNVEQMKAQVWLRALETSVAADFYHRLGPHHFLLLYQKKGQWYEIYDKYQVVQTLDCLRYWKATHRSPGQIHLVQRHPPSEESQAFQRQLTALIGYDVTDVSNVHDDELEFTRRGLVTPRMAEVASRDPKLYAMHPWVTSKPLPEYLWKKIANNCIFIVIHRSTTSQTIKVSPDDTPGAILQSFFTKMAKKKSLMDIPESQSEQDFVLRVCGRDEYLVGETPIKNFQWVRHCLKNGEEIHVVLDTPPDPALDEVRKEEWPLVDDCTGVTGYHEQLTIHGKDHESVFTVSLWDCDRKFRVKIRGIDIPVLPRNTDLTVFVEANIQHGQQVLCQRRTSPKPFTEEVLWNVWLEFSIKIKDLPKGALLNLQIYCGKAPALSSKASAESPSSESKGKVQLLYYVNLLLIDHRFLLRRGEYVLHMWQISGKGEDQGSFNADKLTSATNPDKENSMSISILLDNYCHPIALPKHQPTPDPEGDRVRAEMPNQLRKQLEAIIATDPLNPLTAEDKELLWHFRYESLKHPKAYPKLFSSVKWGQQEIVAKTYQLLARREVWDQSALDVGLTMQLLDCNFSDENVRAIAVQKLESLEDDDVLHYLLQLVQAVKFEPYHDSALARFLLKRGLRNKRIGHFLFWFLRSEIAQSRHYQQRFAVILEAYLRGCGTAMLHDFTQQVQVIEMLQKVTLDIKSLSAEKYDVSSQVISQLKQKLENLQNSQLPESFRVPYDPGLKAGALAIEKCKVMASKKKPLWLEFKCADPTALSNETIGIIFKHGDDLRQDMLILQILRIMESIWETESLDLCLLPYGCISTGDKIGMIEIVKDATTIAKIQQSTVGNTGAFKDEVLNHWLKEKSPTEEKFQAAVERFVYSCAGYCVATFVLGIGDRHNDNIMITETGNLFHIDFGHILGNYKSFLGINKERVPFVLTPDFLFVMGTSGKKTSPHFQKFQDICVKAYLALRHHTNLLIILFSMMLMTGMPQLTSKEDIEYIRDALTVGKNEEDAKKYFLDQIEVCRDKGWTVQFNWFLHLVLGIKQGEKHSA
T1 sequence (P42336 whole entry): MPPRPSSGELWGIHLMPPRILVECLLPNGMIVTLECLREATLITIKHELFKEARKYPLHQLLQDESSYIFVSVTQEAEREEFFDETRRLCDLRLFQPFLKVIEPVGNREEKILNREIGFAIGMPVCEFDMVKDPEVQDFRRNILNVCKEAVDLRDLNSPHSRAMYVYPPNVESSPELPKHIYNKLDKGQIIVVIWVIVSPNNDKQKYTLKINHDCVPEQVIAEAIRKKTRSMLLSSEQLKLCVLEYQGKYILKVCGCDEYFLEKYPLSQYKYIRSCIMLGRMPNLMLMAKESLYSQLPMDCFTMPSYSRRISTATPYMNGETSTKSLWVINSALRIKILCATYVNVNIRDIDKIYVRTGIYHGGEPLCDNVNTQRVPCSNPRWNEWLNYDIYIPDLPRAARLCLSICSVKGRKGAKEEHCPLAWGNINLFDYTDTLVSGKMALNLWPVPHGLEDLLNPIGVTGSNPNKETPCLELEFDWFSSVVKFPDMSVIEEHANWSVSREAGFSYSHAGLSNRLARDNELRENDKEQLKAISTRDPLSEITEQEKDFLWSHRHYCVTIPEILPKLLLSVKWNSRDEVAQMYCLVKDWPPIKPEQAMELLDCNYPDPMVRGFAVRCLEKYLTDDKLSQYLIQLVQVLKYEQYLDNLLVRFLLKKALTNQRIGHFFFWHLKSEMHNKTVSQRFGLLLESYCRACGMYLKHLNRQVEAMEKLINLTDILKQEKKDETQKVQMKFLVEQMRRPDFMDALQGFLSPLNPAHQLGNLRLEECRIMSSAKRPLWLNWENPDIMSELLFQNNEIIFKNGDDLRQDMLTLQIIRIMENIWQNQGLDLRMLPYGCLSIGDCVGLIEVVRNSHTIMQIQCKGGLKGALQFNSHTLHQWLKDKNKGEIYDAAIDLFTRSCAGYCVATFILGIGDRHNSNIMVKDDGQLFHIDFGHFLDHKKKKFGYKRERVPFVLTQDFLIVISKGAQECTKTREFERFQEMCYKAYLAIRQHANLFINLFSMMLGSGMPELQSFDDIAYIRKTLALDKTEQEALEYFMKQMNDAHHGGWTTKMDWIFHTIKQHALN
T1 sequence (P27986 whole entry partner): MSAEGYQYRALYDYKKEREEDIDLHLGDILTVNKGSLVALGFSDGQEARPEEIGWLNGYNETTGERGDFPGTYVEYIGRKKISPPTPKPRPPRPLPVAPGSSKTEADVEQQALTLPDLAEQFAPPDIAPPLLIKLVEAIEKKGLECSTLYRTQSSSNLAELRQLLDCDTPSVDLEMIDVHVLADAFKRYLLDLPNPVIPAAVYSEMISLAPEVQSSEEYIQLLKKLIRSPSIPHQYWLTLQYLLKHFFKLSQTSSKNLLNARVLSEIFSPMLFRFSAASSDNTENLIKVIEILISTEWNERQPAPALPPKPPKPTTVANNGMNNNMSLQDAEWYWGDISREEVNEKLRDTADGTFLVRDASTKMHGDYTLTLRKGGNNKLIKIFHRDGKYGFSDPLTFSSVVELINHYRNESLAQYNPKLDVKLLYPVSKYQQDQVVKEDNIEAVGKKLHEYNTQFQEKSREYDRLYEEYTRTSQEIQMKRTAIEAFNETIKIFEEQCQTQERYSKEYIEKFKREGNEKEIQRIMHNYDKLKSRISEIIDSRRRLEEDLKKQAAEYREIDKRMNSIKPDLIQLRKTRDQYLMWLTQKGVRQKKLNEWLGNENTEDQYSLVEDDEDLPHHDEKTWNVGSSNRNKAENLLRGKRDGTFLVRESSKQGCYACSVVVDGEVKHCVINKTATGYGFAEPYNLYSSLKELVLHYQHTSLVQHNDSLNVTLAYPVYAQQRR

SMILES	IC50 (PI3Kα (p110α/p85α))	IC50 (PI3Kγ (p120γ))	EC50 (Phospho-Akt(Ser473))
C=CS(=O)(=O)N1CCN(Cc2cc3nc(-c4cccc5[nH]ncc45)nc(N4CCOCC4)c3s2)CC1 [II-a-1]	0.1 to 1 µM	0.1 to 1 µM	
C=CC(=O)NCCS(=O)(=O)N1CCN(Cc2cc3nc(-c4cccc5[nH]ncc45)nc(N4CCOCC4)c3s2)CC1 [II-a-13, N-(2-(4-((2-(1H-indazol-4-yl)-4-morpholinothieno[3,2-d]pyrimidin-6-yl)methyl)piperazin-1-ylsulfonyl)ethyl)acrylamide]	0.01 to 0.1 µM	> 1 µM	
C=CC(=O)N1CCN(Cc2cc3nc(-c4ccccc4)nc(N4CCOCC4)c3s2)CC1 [II-a-17, 1-(4-((4-morpholino-2-phenylthieno[3,2-d]pyrimidin-6-yl)methyl)piperazin-1-yl)prop-2-en-1-one]	> 1 µM	> 1 µM	
C=CC(=O)NCc1ccc(C(=O)N2CCN(Cc3cc4nc(-c5cccc6[nH]ncc56)nc(N5CCOCC5)c4s3)CC2)cc1 [II-a-21, N-(4-(4-((2-(1H-indazol-4-yl)-4-morpholinothieno[3,2-d]pyrimidin-6-yl)methyl)piperazine-1-carbonyl)benzyl)acrylamide]	> 1 µM	> 1 µM	
C/C=C/C(=O)CCC(=O)NCCS(=O)(=O)N1CCN(Cc2cc3nc(-c4cccc5[nH]ncc45)nc(N4CCOCC4)c3s2)CC1 [II-a-23, (E)-N-(2-(4-((2-(1H-indazol-4-yl)-4-morpholinothieno[3,2-d]pyrimidin-6-yl)methyl)piperazin-1-ylsulfonyl)ethyl)-4-oxohept-5-enamide]	0.1 to 1 µM	> 1 µM	
CN(C/C=C/C(=O)CCC(=O)N1CCN(Cc2cc3nc(-c4cccc5[nH]ncc45)nc(N4CCOCC4)c3s2)CC1)C(=O)OC(C)(C)C [II-a-24]	0.01 to 0.1 µM	> 1 µM	
C=CC(=O)N1Cc2ccc(-c3cc4nc(-c5cccc(O)c5)nc(N5CCOCC5)c4s3)cc2C1 [II-a-27, 1-(5-(2-(3-hydroxyphenyl)-4-morpholinothieno[3,2-d]pyrimidin-6-yl)isoindolin-2-yl)prop-2-en-1-one]	0.1 to 1 µM	> 1 µM	
C=CC(=O)N1CCN(C(=O)C2CCN(Cc3cc4nc(-c5cccc6[nH]ncc56)nc(N5CCOCC5)c4s3)CC2)CC1 [II-a-31, 1-(4-(1-((2-(1H-indazol-4-yl)-4-morpholinothieno[3,2-d]pyrimidin-6-yl)methyl)piperidine-4-carbonyl)piperazin-1-yl)prop-2-en-1-one]	0.1 to 1 µM	> 1 µM	
C/C=C/C(=O)CCCC(=O)Nc1ccc(S(=O)(=O)Nc2cc(-c3ccc4nccc(-c5ccncc5)c4c3)cnc2OC)cc1 [X-1, (E)-N-(4-(N-(2-methoxy-5-(4-(pyridin-4-yl)quinolin-6-yl)pyridin-3-yl)sulfamoyl)phenyl)-5-oxooct-6-enamide]	0.1 to 1 µM		≤ 0.01 µM
COc1ccc(-c2nn(C3CCN(C(=O)CCC(=O)/C=C/c4ccccc4)CC3)c3ncnc(N)c23)cc1OC [XI-3, (E)-1-(4-(4-amino-3-(3,4-dimethoxyphenyl)-1H-pyrazolo[3,4-d]pyrimidin-1-yl)piperidin-1-yl)-6-phenylhex-5-ene-1,4-dione]	0.1 to 1 µM		≥ 1 µM

The next lines start with the values.

IC50 (PI3Kα (p110α/p85α))	IC50 (PI3Kγ (p120γ))	EC50 (Phospho-Akt(Ser473))	SMILES
0.1 to 1 µM		0.01 to 0.1 µM	C=CC(=O)Nc1ccc(C(=O)N2CCC(n3ncc4c(N5CCOCC5)nc(-c5cnc(N)nc5)nc43)CC2)cc1 [VII-12, N-(4-(4-(6-(2-aminopyrimidin-5-yl)-4-morpholino-1H-pyrazolo[3,4-d]pyrimidin-1-yl)piperidine-1-carbonyl)phenyl)acrylamide]
0.01 to 0.1 µM		0.01 to 0.1 µM	C=CC(=O)Nc1ccc(C#Cc2cc(-c3cnc(N)nc3)nc(N3CCOCC3)c2)cc1 [XII-4, N-(4-((2-(2-aminopyrimidin-5-yl)-6-morpholinopyridin-4-yl)ethynyl)phenyl)acrylamide]
0.1 to 1 µM		0.01 to 0.1 µM	C=CC(=O)Nc1ccc(OCc2cc(-c3cnc(N)nc3)nc(N3CCOCC3)c2)cc1 [XII-5, N-(4-((2-(2-aminopyrimidin-5-yl)-6-morpholinopyridin-4-yl)methoxy)phenyl)acrylamide]
0.01 to 0.1 µM		0.1 to 1 µM	CC(C)=CC(=O)CCC(=O)N1CCC2(CC1)CN(c1cc(-c3cnc(N)nc3)nc(N3CCOCC3)c1)C2 [XII-39, 1-(2-(2-(2-aminopyrimidin-5-yl)-6-morpholinopyridin-4-yl)-2,7-diazaspiro[3.5]nonan-7-yl)-6-methylhept-5-ene-1,4-dione]
> 1 µM		0.1 to 1 µM	CC(C)=CC(=O)CCCC(=O)N1CCC2(CC1)CN(c1cc(-c3cnc(N)nc3)nc(N3CCOCC3)c1)C2 [XII-41, 1-(2-(2-(2-aminopyrimidin-5-yl)-6-morpholinopyridin-4-yl)-2,7-diazaspiro[3.5]nonan-7-yl)-7-methyloct-6-ene-1,5-dione]
0.1 to 1 µM		0.1 to 1 µM	C=CC(=O)Nc1ccc(C(=O)N2CC=C(c3cc(-c4cnc(N)nc4)nc(N4CCOCC4)c3)CC2)cc1 [XII-46, N-(4-(4-(2-(2-aminopyrimidin-5-yl)-6-morpholinopyridin-4-yl)-1,2,3,6-tetrahydropyridine-1-carbonyl)phenyl)acrylamide]
0.1 to 1 µM		0.1 to 1 µM	C=CC(=O)Nc1cccc(C(=O)N2CC=C(c3cc(-c4cnc(N)nc4)nc(N4CCOCC4)c3)CC2)c1 [XII-47, N-(3-(4-(2-(2-aminopyrimidin-5-yl)-6-morpholinopyridin-4-yl)-1,2,3,6-tetrahydropyridine-1-carbonyl)phenyl)acrylamide]
0.1 to 1 µM		0.1 to 1 µM	C=CC(=O)Nc1cccc(N2CC=C(c3cc(-c4cnc(N)nc4)nc(N4CCOCC4)c3)CC2)c1 [XII-48]
0.01 to 0.1 µM		0.1 to 1 µM	C=C(C)C(=O)c1ccc(C(=O)N2CC=C(c3cc(-c4cnc(N)nc4)nc(N4CCOCC4)c3)CC2)cc1 [XII-49, 1-(4-(4-(2-(2-aminopyrimidin-5-yl)-6-morpholinopyridin-4-yl)-1,2,3,6-tetrahydropyridine-1-carbonyl)phenyl)-2-methylprop-2-en-1-one]
0.1 to 1 µM		0.1 to 1 µM	CC(C)=CC(=O)c1ccc(C(=O)N2CC=C(c3cc(-c4cnc(N)nc4)nc(N4CCOCC4)c3)CC2)cc1 [XII-50, 1-(4-(4-(2-(2-aminopyrimidin-5-yl)-6-morpholinopyridin-4-yl)-1,2,3,6-tetrahydropyridine-1-carbonyl)phenyl)-3-methylbut-2-en-1-one]
